{"source": "patent US11197856B2", "about": "“Bicyclic compounds and methods for their use in treating autism” (priority 2013, dated 2021)", "key": {"synaptophysin (SYN)": {"tested_on": "synaptophysin (SYN)", "assay": "PBBI in rats: synaptophysin (SYN) immunohistochemistry in hippocampus", "type": "in vivo, Sprague-Dawley rats", "settings": "30 mg/kg oral once daily", "procedure": "The methods for producing PBBI in this Example is the same as described above for Example 26. Adult Sprague-Dawley rats were randomly assigned into three groups: sham (craniotomy only), PBBI+vehicle (i.e. H2O), and PBBI+cG-2-AllylP. cG-2-AllylP (or vehicle) was administered via oral gavage at 30 mg/kg at 30 min post-injury and continued once daily thereafter for 7, 14 or 28 days. At each treatment endpoint, rats were perfused and brains were processed for histological analysis (n=5-6/group/time-point). For detection of axonal sprouting, immunohistochemical detection of growth-associated protein-43 (GAP-43) was employed. Synaptogenesis was determined by immunohistochemistry for synaptophysin (SYN). For histological quantification, the integrated density in the hippocampal region was determined using NIH ImageJ software."}, "[1]": {"tested_on": "genetic markers related to neuroplasticity", "assay": "PBBI in rats: neuroplasticity mRNA arrays", "type": "in vivo", "description": "The unilateral frontal PBBI model, which mimics the ballistic dynamics of a bullet or fragment wound to the head (Williams, 2003; Williams, 2006), was induced by stereotactic insertion of a custom probe through the right frontal cortex. A temporary cavity was formed by the rapid inflation/deflation (i.e. <40 msec) of an elastic balloon attached to the end of the probe. The PBBI apparatus consisted of a computer-controlled hydraulic pressure generator (Mitre Corp McLean, Va.), a PBBI probe and a stereotaxic frame equipped with a custom-designed probe holder as previously described (Lu, 2009; Williams, 2003). The injury severity was determined by the size of the balloon under control of the computerized hydraulic pressure. The balloon diameter calibrated to 0.63 cm expansion represented 10% of the total rat brain volume thus expressing a 10% PBBI. All surgeries were done under anaesthesia. Groups tested: Sham+vehicle, PBBI+vehicle, PBBI+cG-2-AllylP (30 mg/kg by oral gavage, 30 min post-injury, and again once daily until endpoint). AU procedures were approved by the Institutional Animal Care and Use Committee of WRAIR. Animals were housed in a facility accredited by the AAALAC.\ncG-2-AllylP (or vehicle) was administered to the animals via oral gavage at a dose of 30 mg/kg.\ncDNA was generated. From total RNA from individual animals using random primers. cDNA was plated unto a targeted PCR array produced by SA Biosciences and product was detected using SyBr green fluorescence. Ct levels were normalized to beta actin. Injury results were compared to sham to evaluate relative quantities (RQ) (n=6 per group)."}, "MeCP2-/y mice": {"tested_on": "MeCP2-/y mice", "assay": "Heart rate measurements (tail clip sensor)", "type": "in vivo", "settings": "8 weeks old", "procedure": "Real time cardiac pulse rate is measured using a tail clip sensor (Mouse OX Oximeter-Oakmont, Pa.). Mice are not anesthetized but physically restrained in a fitted open plastic tube. Prior to the recording session the tube is placed overnight in the cages housing the experimental animals to allow habituation. Body temperature is maintained at ˜82-84° F. throughout the recording time. We record 3 trials of 15 minutes for each mouse, mice are 8 weeks old and treated with vehicle or cG-2-AllylP from PIS.\nTo examine heart rate abnormalities in MeCP2−/y mice and the effect of cG-2-AllylP treatment, we monitor real time cardiac pulse rate in non-anesthetized wild type and MeCP2−/y animals treated with vehicle or cG-2-AllylP."}, "AMPA receptors GluR1": {"tested_on": "AMPA receptors GluR1", "assay": "AMPA glutamate receptor-1 immunohistochemical staining of hippocampus", "type": "in vivo, male Wistar rats", "procedure": "Aged rats (male Wistar rats, 18-20 months old) were divided into four groups: two vehicle-treated (groups 1 and 3) and two G-2-AllylP treated (groups 2 and 4) (all groups n=6-8). Cyclic G-2-AllylP was synthesised by the Department of Medicinal Chemistry and dissolved in normal saline before the treatment. On day 1 a single dose of cyclic G-2-AllylP was given centrally (20 ng/animal, i.c.v.) to the animals in groups 2 and 4; saline was administered to groups 1 and 3. The memory tests using Novel Object Recognition Test started either on day 3 (groups 1 and 2) or 24 (groups 3 and 4) after the treatment. On the completion of the NORT, the rats were killed with an overdose of sodium pentobarbital and were perfused transcardially with normal saline followed by 10% formalin. Tissues collected at day 7 in groups 1 and 2, and at day 28 from groups 3 and 4. The brains were kept in the same fixative for a minimum of 2 days before being processed using a standard paraffin embedding procedure. Briefly, small blocks (10×10×3 mm) of tissue were fixed for up to 24 hrs. The blocks were then infiltrated and embedded with paraffin and cut in ribbons and mounted on slides. […]\nThe following antibodies were used: • i) primary rabbit antibody to NMDA NR1 subunit, at 1:200 concentration in buffer, incubated for 48 hrs (Chemicon—AB1516), followed by Sigma fluorescent secondary antibody (alexaFluor 394), at 1:200 dilution, incubated for 24 hours at 40C. • ii) primary antibody to AMPA GluR1 subunit, at 1:30 concentration in buffer, incubated for 48 hrs (Chemicon—AB1504) followed by 3,3′-diaminobenzidine (DAB) at 1:200 dilution, incubated for 24 hours at 40C. • iii) Primary antibody to mSynaptophysin (Sigma—S5768), at 1:200 concentration in buffer, followed by DAB at 1:200 dilution, incubated for 24 hours at 40C. • iv) Primary antibody to rKrox-24 (Santa Cruz—catalogue number SC-189) at 1:200 concentration in the buffer, followed by anti-rabbit secondary antibody at concentration of 1:200 dilution, incubated for 24 hours at 40C. • y) Antibodies were detected using light microscopy. […]"}}}
{"smiles": "C=CC[C@]12CCCN1C(=O)CNC2=O", "note": "[cG-2-AllylP, (8aS)-Allyl-hexahydropyrrolo[1,2-a]pyrazine-1,4-dione]", "values": [{"measurement": "injury-induced reduction in SYN expression", "setting": "synaptophysin (SYN); 7d or 14d post-PBBI", "result": "no effect on injury-induced reductions"}, {"measurement": "PBBI-induced reduction in SYN expression", "setting": "synaptophysin (SYN); 28 days post-injury", "result": "attenuated PBBI-induced reductions"}, {"measurement": "Gria 4 mRNA expression", "setting": "[1]; 24 hr. time point after PBBI", "result": "significantly increased Gria 4"}, {"measurement": "BDNF mRNA expression (trend)", "setting": "[1]; after PBBI", "result": "decreased BDNF"}, {"measurement": "Crem mRNA expression (trend)", "setting": "[1]; after PBBI", "result": "decreased Crem"}, {"measurement": "NTF3 mRNA expression (trend)", "setting": "[1]; after PBBI", "result": "decreased NTF3"}, {"measurement": "NTF4 mRNA expression (trend)", "setting": "[1]; after PBBI", "result": "decreased NTF4"}, {"measurement": "Pcdh8 mRNA expression (trend)", "setting": "[1]; after PBBI", "result": "decreased Pcdh8"}, {"measurement": "Pim1 mRNA expression (trend)", "setting": "[1]; after PBBI", "result": "decreased Pim1"}, {"measurement": "Ppp3ca mRNA expression (trend)", "setting": "[1]; after PBBI", "result": "increased Ppp3ca"}, {"measurement": "occurrence of irregular heart rate with a lower average rate", "setting": "MeCP2-/y mice", "result": "significantly reduced"}, {"measurement": "number of AMPA receptors GluR1", "setting": "AMPA receptors GluR1; CA1 granular cell layer, day 28", "result": "significant increase in the number of AMPA receptors"}, {"measurement": "number of AMPA receptors GluR1", "setting": "AMPA receptors GluR1; CA1 stratum oriens, day 28", "result": "significant increase in the number of AMPA receptors"}, {"measurement": "number of AMPA receptors GluR1", "setting": "AMPA receptors GluR1; CA3, day 7 or 28, 20 ng/animal i.c.v.", "result": "no change in the number of receptors"}]}
